Two compounds from patent publication US12227713B2, “Polysiloxane hydraulic fluids” (THE BOEING COMPANY, priority 2016, dated 2025) can be followed below.

This data set is described as follows: Viscosity (ASTM D445). Type of data set: physicochemical. The source says:
The viscosity may be determined using the protocol in ASTM D445, and for example ASTM D445FL1 for low temperature measurements.

Regarding `CCCCCCCCCCP(=O)(OCCCC)OCCCC` [DiButyl Decane Phosphonate (AP32), DiButyl Decane Phosphonate], the “38 C. Viscosity (cP)” value came out at 4.91 ± 0.01 cP, the “Room Temp (25 C.) Viscosity (cP)” value amounted to 6.97 ± 001 cP and the “−54 C. Viscosity (cP)” value stood at 706.2 ± 5.4 cP.
Consider `CCCCCCCCCCP(=O)(OCC)OCC` [DiEthyl Decane Phosphonate (AP28), DiEthyl Decane Phosphonate], for which the “38 C. Viscosity (cP)” value is listed as 4.89 ± 0.01 cP, the “Room Temp (25 C.) Viscosity (cP)” value came out at 7.02 ± 0.04 cP and the “−54 C. Viscosity (cP)” value is given as “Frozen <3 hr”.
